Assay results from patent US8062669B2, “Vectorization system comprising nanoparticles of homogenous size of at least one polymer and at least one positively charged polysaccharide and method for the preparation thereof” (Bioalliance Pharma, priority 2002, dated 2011).

Legend:
[1] = test system: CEM 4FX cells
Procedure: (§1) The NIH 3T3 and NIH 3T3 EWS-Fli-1 (adherent cells) were sown on 6-well plates at 100,000 cells per well in their culture medium without puromycin and the IW35 cells (cells in suspension) in 12-well plates at the rate of 750,000 cells per well. Other cells in suspension CEM 4FX were also tested. They were sown at 10,000 cells per well in 96-well plates.
(§2) Different concentrations of CTAB and chitosan of various molecular weight were tested.
(§3) Two controls were used and corresponded to the cells in the culture medium on the one hand and in the culture medium containing 100 μl of NaCl 150 mM on the other hand. After 24 hours of incubation, the measurements of cytotoxicity were performed by a test measuring the activity of the mitochondrial dehydrogenase enzymes of the living cells by oxidation of MTT (3-(4,5-dimethyl thiazol-2-yl)-2,5-diphenyl tetrazolium bromide; SIGMA) in formazan. The amount of formazan produced is directly proportional to the number of metabolically active live cells. The cells were washed with PBS and 1 ml of the medium was added. The cells were then incubated at 37° C. with 100 μl of a solution of MTT (5 mg/ml in PBS) for 3 hours. 1 ml of a lysis solution (10% SDS, 10 mM Tris) was then added to each well. The cells were incubated at 37° C. overnight. The medium was homogenized and the optical density was read at 560 nm (Dynatech MRX).

[2] = test system: NIH 3T3 EWS-Fli1 cells
Procedure: (§4) The NIH 3T3 and NIH 3T3 EWS-Fli-1 (adherent cells) were sown on 6-well plates at 100,000 cells per well in their culture medium without puromycin and the IW35 cells (cells in suspension) in 12-well plates at the rate of 750,000 cells per well.
(§5) For the first two cell types, the cells were sown 24 hours prior to their transfection. The medium was then eliminated and 100 μl of solution of the complex to be tested was brought into contact with the cells in 900 μl of medium.
as §2
(§6) Two controls were used and corresponded to the cells in the culture medium on the one hand and in the culture medium containing 100 μl of NaCl 150 mM on the other hand. After 24 hours of incubation, the measurements of cytotoxicity were performed by a test measuring the activity of the mitochondrial dehydrogenase enzymes of the living cells by oxidation of MTT (3-(4,5-dimethyl thiazol-2-yl)-2,5-diphenyl tetrazolium bromide; SIGMA) in formazan. The amount of formazan produced is directly proportional to the number of metabolically active live cells. The cells were washed with PBS and 1 ml of the medium was added. The cells were then incubated at 37° C. with 100 μl of a solution of MTT (5 mg/ml in PBS) for 3 hours. […] The medium was homogenized and the optical density was read at 560 nm (Dynatech MRX).

[3] = test system: NIH 3T3 cells
Procedure: as §4, §5, §2, §6

[4] = test system: IW35 cells
Procedure: as §1, §2, §3

CCCCCCCCCCCCCCCC[N+](C)(C)C.[Br-] [CTAB, cetyl trimethyl ammonium bromide]
toxicity [1]: elevated toxicity at low concentrations
toxicity [2]: notable toxicity
toxicity [3]: notable toxicity
toxicity [4]: elevated toxicity at low concentrations
